{
  "source": "patent US20230285372A1",
  "about": "“Pharmaceutical use of (E)-3-arylheterocyclylprop-2-enoic acid derivatives” (MEDCURIUS INC., priority 2020, published 2023)",
  "key": {"NQO-1": {"tested_on": "NQO-1", "test": "NQO-1 expression in HT-22 cytoplasm, Western Blot", "format": "cell-based, mouse", "details": "HT-22 cells, 1.25 μM, 24 hours, vs control group", "excerpt": "(§1) As a transcription factor, Nrf2 needs to enter the nucleus and combine with ARE sequence to play a role in transcriptional activation. Therefore, Nrf2 protein level in the nucleus is an important prerequisite for the activation of Nrf2 signaling pathway. NQO-1 and HO-1 are target genes regulated by Nrf2, and the increase of their protein levels is an important sign of activation of the Nrf2 signaling pathway.\n(§2) HT-22 cells in logarithmic growth phase were selected, the culture medium was discarded, the cells were digested with 0.25% Trypsin containing EDTA, and cell suspension was made. Cell density was adjusted to 50000/ml with DMEM/F12 medium (containing 10% FBS and 1% double antibody) and it was inoculated to 6-well plate, with 2000 μL/well, the number of cells per well was 100, 000, and the cells were cultured in a cell incubator at 37° C. in an atmosphere containing 5% CO2 for 24 hours. Then, the medium of each well was replaced with new 1980 μL DMEM/F12 medium. […] After 24 hours, the cells were collected, nuclear protein and cytoplasmic protein were extracted, and the level of Nrf2 in the nucleus and the expression of NQO-1 and HO-1 in cytoplasm were detected by Western Blot."}, "HO-1": {"tested_on": "HO-1", "test": "HO-1 expression in HT-22 cytoplasm, Western Blot", "format": "cell-based, mouse", "details": "HT-22 cells, 1.25 μM and 0.625 μM, 24 hours, vs control group", "excerpt": "as §1, §2"}, "HT-22 cells": {"tested_on": "HT-22 cells", "test": "Protective effect on HT-22 cell damage caused by L-glutamate monosodium salt", "format": "cell-based, mouse", "details": "15 mM L-glutamate", "description": "(§3) Well-proliferated HT-22 cells, derived from mouse hippocampal neuronal cells in logarithmic growth phase, were selected, and they were counted after being subjected to trypsin digestion and dispersion. The cell density was adjusted with DMEM/F12 medium (containing 10% FBS and 1% double antibody). The cells were then inoculated in a 96-well plate at a density of 2,000 cells per well, and cultured in a cell incubator at 37° C. in atmosphere containing 5% CO2 for 24 hours. For the control group and the L-glutamate monosodium salt group (model group), serum-free DMEM/F12 medium was added, and the other wells were added with tested compounds of different concentrations; except that the serum-free DMEM/F12 medium was added to the control group. L-glutamate monosodium salt solution at the final concentration of 15 mM was added to the remaining wells. After 24 hours, the cell viability was detected with a luminescent cell viability assay kit.\nas §3, with “group,” for “group.”\nas §3, with “2.000” for “2,000”, “group,” for “group.”"}, "[1]": {"tested_on": "MPTP-induced Parkinson's disease mouse", "test": "Pole-climbing test, MPTP-induced Parkinson's disease mouse", "format": "in vivo", "details": "40 days, vs model group", "description": "(§4) Male C57 mouse were screened for their motor function by a mouse rod-rotating test, and unqualified ones were excluded from the test. […] MPTP was injected subcutaneously every 4 days in the model group and the drug administration group with a dosage of 25 mg/kg for 40 consecutive days. Each group of I-5 was administered once a day at 8:00 am and 8:00 pm (by intragastric administration), twice in total. […] The intragastric volume was 0.1 ml/10 g body weight, and the behavior test was started 40 days later. […] The storage time of the prepared liquid medicine was not more than 24 hours.\nA climbing pole in the pole-climbing test was a rough wooden pole with a diameter of 2 cm and a length of 50 cm. The bottom of the wooden pole was located in the mouse home cage and was vertically oriented. When the mouse was placed on top of the wooden pole, it would naturally descend to the bottom of the wooden pole and reach the base of the pole. […] The mouse should have a pre-acclimation period of 2 days prior to the test, training five times a day. To the test day, the time required for the […] to reach the bottom (incubation period) was taken as an evaluation index to observe the effect of the tested compound on the motion ability of the mouse."}, "[2]": {"tested_on": "MPTP-induced Parkinson's disease mouse", "test": "Rotarod test, MPTP-induced Parkinson's disease mouse", "format": "in vivo", "details": "vs model group", "description": "as §4\nOn the first day, the mouse acclimated to a rotating speed of 5 rpm for two times, each time for 5 minutes. On the second day, the rotarod turned at a speed of 10 rpm, the mouse acclimated to the speed for two times, each time for 5 minutes. On the third day, the rotarod turned at a speed of 15 rpm, the mouse acclimated to the speed for two times, each time for 3 minutes. On the fourth day, a behavioral test was started. The rotarod turned at a speed of 15 rpm for a period of 3 minutes. The time mouse spent on the rotarod (fall latency) was taken as an index for evaluation of their motor coordination. The test was repeated three times for each animal, with an interval of 30 minutes to eliminate the interference of exercise fatigue on the motion ability of animals."}, "[3]": {"tested_on": "tyrosine hydroxylase (TH)", "test": "Tyrosine hydroxylase (TH) level in midbrain, immunohistochemistry, MPTP mouse", "format": "in vivo", "details": "medium and high dosage of I-5 (10 and 20 mg/kg bid); vs model group", "protocol": "Tyrosine hydroxylase (TH), the rate-limiting enzyme in dopamine synthesis, is the landmark protein of the dopaminergic neurons. Therefore, the decrease in its level indicates the loss of the dopaminergic neurons.\nMale C57 mouse were screened for their motor function by a mouse rod-rotating test, and unqualified ones were excluded from the test. […] MPTP was injected subcutaneously every 4 days in the model group and the drug administration group with a dosage of 25 mg/kg for 40 consecutive days. Each group of I-5 was administered once a day at 8:00 am and 8:00 pm (by intragastric administration), twice in total. The control group and model group were given the corresponding solvent once a day in the morning (by intragastric administration) while the positive control group (L-DOPA) was given L-DOPA once a day in the morning (by intragastric administration). The intragastric volume was 0.1 ml/10 g body weight, and the behavior test was started 40 days later. […] The storage time of the prepared liquid medicine was not more than 24 hours.\nTissues from all the animals were collected on the second day after the end of the behavioral experiment. […] The level of tyrosine hydroxylase (TH), a marker protein of dopaminergic neurons, was detected by immumohistochemistry, and α-synuclein protein level and phosphorylation level of the protein were detected by Western blot."}, "[4]": {"tested_on": "MPTP-induced Parkinson's disease mouse", "test": "Model of MPTP-induced Parkinson's disease mouse, overall conclusion", "format": "in vivo", "details": "improves MPTP-induced dyskinesia and inhibits neurodegeneration; bid intragastric", "description": "as §4"}},
  "note": "Several values for one entry are separate records, joined by “and”; a condition that tells them apart may be missing. Equal entries are not always repeated.",
  "data": [
    {"smiles": "N#C/C=C/c1ccccn1", "note": "[Compound I-5]", "values": [
      {"measurement": "protein level of NQO-1", "setting": "NQO-1", "value": "increased significantly"},
      {"measurement": "protein level of HO-1", "setting": "HO-1", "value": "increased significantly"},
      {"measurement": "protection of HT22 cells against L-glutamate monosodium salt damage, in words", "setting": "HT-22 cells; HT22 cells, comparison with positive control drug DMF", "value": "better effects than the positive control drug DMF"},
      {"measurement": "viability at 0.156 µM", "setting": "HT-22 cells; Mus musculus, HT-22, 24 h, Table 1, Conc 0.156 μm, 24 hours, L-Glu alone 27.73 (I-5 32.92), read-out: cell viability", "value": 79.3, "unit": "%"},
      {"measurement": "viability at 0.625 µM", "setting": "HT-22 cells; Mus musculus, HT-22, 24 h, Table 1, Conc 0.625 μm, 24 hours, L-Glu alone 27.73 (I-5 32.92), read-out: cell viability", "value": 73.7, "unit": "%"},
      {"measurement": "viability at 2.5 µM", "setting": "HT-22 cells; Mus musculus, HT-22, 24 h, Table 1, Conc 2.5 μm, 24 hours, L-Glu alone 27.73 (I-5 32.92), read-out: cell viability", "value": 57.6, "unit": "%"},
      {"measurement": "viability at 5 µM", "setting": "HT-22 cells; Mus musculus, HT-22, 24 h, Table 1, Conc 5 μm, 24 hours, L-Glu alone 27.73 (I-5 32.92), read-out: cell viability", "value": 58.2, "unit": "%"},
      {"measurement": "latency of mouse reaching the base of the pole", "setting": "[1]; I-5 5 mg/kg bid intragastric, p<0.01", "value": "significantly shortened"},
      {"measurement": "latency of mouse reaching the base of the pole", "setting": "[1]; I-5 10 mg/kg bid intragastric, p<0.0001", "value": "significantly shortened"},
      {"measurement": "latency of mouse reaching the base of the pole", "setting": "[1]; I-5 20 mg/kg bid intragastric, p<0.0001", "value": "significantly shortened"},
      {"measurement": "fall latency in the Rotarod test", "setting": "[2]; 5 mg/kg bid intragastric, p>0.05", "value": "no significant difference"},
      {"measurement": "fall latency in the Rotarod test", "setting": "[2]; medium and high dosage groups (10 and 20 mg/kg bid), p<0.0001", "value": "significantly prolonged"},
      {"measurement": "TH positive area of substantia nigra", "setting": "[3]", "value": "significantly increase the TH positive area"},
      {"measurement": "effective doses", "setting": "[4]", "value": "10 mg/kg and 20 mg/kg"}
    ]}
  ]
}
